Measurements published in US11278504B1, “Treatment of a lionfish sting and formulations for use thereof” (priority 2019, dated 2022).

Key:
[1] = target: T1, P2X3 receptors (Mus musculus, UniProt Q3UR32); format: cell-based
T1 construct: endogenous in cells; host or cells: primary DRG cultures of TRPV1-Cre::GCaMP6f mice
T1 sequence (Q3UR32 1-397): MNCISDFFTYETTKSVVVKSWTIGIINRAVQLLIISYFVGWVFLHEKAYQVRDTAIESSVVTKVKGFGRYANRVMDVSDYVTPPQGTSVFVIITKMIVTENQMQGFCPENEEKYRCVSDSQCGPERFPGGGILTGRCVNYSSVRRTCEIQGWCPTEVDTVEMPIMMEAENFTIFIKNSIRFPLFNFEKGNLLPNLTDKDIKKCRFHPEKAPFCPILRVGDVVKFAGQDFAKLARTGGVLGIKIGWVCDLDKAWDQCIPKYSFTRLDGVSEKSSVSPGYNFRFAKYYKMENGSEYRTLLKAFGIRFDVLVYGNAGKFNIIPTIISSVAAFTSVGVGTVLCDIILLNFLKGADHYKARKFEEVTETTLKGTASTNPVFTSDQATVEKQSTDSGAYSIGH
Method: Cre-dependent GCaMP6f mice (Ai95D; Jackson Labs) were crossed with TRPV1-Cre mice to express GCaMP6f in all nociceptors. In TRPV1-Cre::GCaMP6f mice, GCaMP6f expression is not limited to cells that are TRPV1-positive at maturity, because TRPV1 is expressed broadly amongst nociceptors early in development.
DRG cultures were grown on 35 mm dishes. On the 3rd day, the cultures were treated with complexes of predesigned siRNA molecules directed against mouse P2X3 or a non-targeting control siRNA (Qiagen FlexiTube siRNA final concentration 100 nM) and 2 ul of HiPerFect transfection reagent. The cells were incubated with the transfection complexes for 48 to 72 hours with addition of fresh media 24 h post-transfection.

[2] = target: T2, P2X3 receptor (Homo sapiens, UniProt P56373); assay: Calcium imaging of cultured human nociceptors exposed to lionfish venom; format: cell-based; details: AF-353 300 nM, 8-minute incubation; p<0.001 Fisher's exact test
T2 construct: dorsal root ganglia were isolated from human organ donors and placed in culture; endogenous in cells; host or cells: primary sensory neurons cultured from human donor dorsal root ganglia
Method: To verify the efficacy of this compound in humans, dorsal root ganglia were isolated from human organ donors and placed in culture between 3 and 5 hours after cross-clamping the heart. Sensory neurons were cultured for at least 5 days before performing any experiments to allow for satellite cell detachment. For calcium imaging experiments, human nociceptors were exposed to the lionfish venom in the presence of the P2X3 receptor antagonist AF-353 (300 nM), which was introduced in the bath solution (in mM: NaCl 150, KCl 3, Glucose 10, CaCl2) 2, and MgCl2 1; in distilled water, buffered to a pH of 7.3). Cells were incubated with AF-353 for 8-minutes either after an initial application of lionfish venom or before any applications of the venom. Venom was applied in 2-second puffs with a picospritzer as in FIG. 2.

[3] = target: T3, P2X3 (Mus musculus, UniProt Q3UR32); assay: Spontaneous pain assay, intraplantar AF-353 before or after lionfish venom; format: in vivo, mice; details: AF-353 3 mM in 20 μL intraplantar 30 minutes prior or within 2 minutes after 66 μg venom; 1 hour
T3 construct: from tissue; host or cells: living mice, hind paw (whole animal, behavioural read-out)
Method: AF-353 was prepared in a stock solution of 300 mM in DMSO and diluted to 3 mM in physiological saline for at the time of experimentation. Mice were injected with AF-353 intraplantarly either 30 minutes prior to injection of lionfish venom, to determine whether the compound could be used as a prophylactic treatment against lionfish envenomations, or immediately (within 2 minutes) after injection of lionfish venom in the paw, in order to determine whether the compound could be used as a treatment after lionfish envenomations. During the experiment, mice were placed on a glass surface with a mirror placed underneath at a 45-degree angle and kept in round Plexi-glass restrainers. A video camera filmed the animals' spontaneous pain behaviour for an hour. The amount of time the mice spent licking their paws was quantified by two independent and blinded experimenters.
Mice were injected with the vehicle (Veh) for AF-353 (DMSO) 30 minutes prior to injection of the Veh for the venom (physiological saline) (empty squares), venom (Vnm) followed by Veh (DMSO; black squares), AF-353 (AF, 3 mM in a total volume of 20 μL) followed by venom (light grey squares), or venom followed by AF-353 (dark grey squares). n=5 mice per group. The dose of venom injected was 66 μg of crude venom in a total volume of 20 μL (veh. saline). […] Stats: ***=P<0.001; **=P=0.009. Unpaired t test.

[4] = target: T4, TRPV1 (Mus musculus, UniProt Q704Y3); format: cell-based, mice
Method: To test the TRPV1 receptor antagonist, changes in intracellular calcium concentrations in single cells were recorded as changes in GCaMP6f fluorescence. Exposure to the antagonist (10 μM) and image analysis were performed in a manner similar to the bradykinin (BK) receptor antagonist described above. The TRPV1 receptor agonist capsaicin (1 μM) and lionfish venom were applied during 1 second over the imaging region.

[5] = target: T4, TRPV1; format: in vivo, mice; details: 30 mg/kg intraperitoneal; 44 μg venom intraplantar; P=0.841 vs vehicle
Method: Protein concentration in the venom extract was determined to be 2.2 μg/μL using the Bio-Rad DC assay. Mice (12-weeks old C57BL/6 males and females, The Jackson Laboratory) were placed in an observation chamber on a glass platform, under which a mirror was placed at a 45° angle so as to show the hind paw of the mouse to the recording videocamera. Once the mice were acclimatized to the chamber, they were taken out and injected in the ventral aspect of their left hind paw with a 20 μl solution of the crude or diluted venom (44 or 4.4 μg/20 μl). The venom was extracted in sterile physiological saline (0.9% NaCl) and the same vehicle was used for dilutions.

T4 sequence (Q704Y3 whole entry): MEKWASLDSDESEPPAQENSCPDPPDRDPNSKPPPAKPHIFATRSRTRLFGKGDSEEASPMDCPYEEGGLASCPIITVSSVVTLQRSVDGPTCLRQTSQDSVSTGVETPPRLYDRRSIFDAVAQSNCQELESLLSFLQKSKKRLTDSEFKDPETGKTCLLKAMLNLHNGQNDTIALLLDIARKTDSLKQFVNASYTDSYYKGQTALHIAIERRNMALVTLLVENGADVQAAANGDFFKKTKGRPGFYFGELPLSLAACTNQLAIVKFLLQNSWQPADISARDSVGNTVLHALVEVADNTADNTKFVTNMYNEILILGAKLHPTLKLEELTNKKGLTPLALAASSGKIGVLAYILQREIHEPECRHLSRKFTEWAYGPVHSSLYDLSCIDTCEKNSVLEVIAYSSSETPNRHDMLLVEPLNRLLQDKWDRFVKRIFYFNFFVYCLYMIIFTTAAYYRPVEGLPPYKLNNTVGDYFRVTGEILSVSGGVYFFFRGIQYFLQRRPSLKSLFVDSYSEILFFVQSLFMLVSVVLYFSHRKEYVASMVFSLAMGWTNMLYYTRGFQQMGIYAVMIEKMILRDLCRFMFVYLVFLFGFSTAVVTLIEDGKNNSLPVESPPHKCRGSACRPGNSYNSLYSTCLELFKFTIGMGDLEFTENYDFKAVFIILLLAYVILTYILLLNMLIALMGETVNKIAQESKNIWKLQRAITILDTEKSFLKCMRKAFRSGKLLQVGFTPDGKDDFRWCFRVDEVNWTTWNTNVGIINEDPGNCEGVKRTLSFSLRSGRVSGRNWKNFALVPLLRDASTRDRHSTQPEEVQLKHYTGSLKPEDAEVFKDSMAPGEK
T2 sequence (P56373 whole entry): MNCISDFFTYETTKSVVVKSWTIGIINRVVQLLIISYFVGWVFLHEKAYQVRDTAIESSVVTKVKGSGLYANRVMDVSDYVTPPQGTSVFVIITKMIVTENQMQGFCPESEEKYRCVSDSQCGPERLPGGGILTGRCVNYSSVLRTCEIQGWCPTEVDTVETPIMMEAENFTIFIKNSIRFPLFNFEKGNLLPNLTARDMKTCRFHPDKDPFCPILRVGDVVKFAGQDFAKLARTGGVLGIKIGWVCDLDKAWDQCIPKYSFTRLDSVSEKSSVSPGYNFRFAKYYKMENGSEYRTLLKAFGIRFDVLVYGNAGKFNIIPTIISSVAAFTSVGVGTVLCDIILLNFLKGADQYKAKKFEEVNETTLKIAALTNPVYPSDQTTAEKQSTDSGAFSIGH

Question: Which “venom-elicited intracellular calcium responses in cultured mouse nociceptors” value [1] does the source give for `COc1cc(C(C)C)c(Oc2cnc(N)nc2N)cc1I` [AF-353] here?
Answer: The value was “reversibly blocks”.

Question: What about the “α,β,Me-ATP-elicited calcium responses in cultured mouse nociceptors” value ([1]; selective P2X3 receptor agonist α,β,Me-ATP) of the same compound?
Answer: Its value is “reversibly blocks”.

Question: And the “venom-induced calcium responses in human nociceptors” value [2]?
Answer: Its value is “do not display calcium responses”.

Question: And the “pain caused by lionfish venom in vivo (time licking injected paw)” value [3]?
Answer: The value was “effective in reducing or eliminating pain”.

Question: For `CC(C)(C)c1ccc(/C=C/C(=O)Nc2ccc3c(c2)OCCO3)cc1` [AMG-9810], which “Proportion of cultured DRG neurons responding to capsaicin in the presence of AMG-9810” value [4] is on record?
Answer: The value was 0/65.

Question: What about the “effect on capsaicin-elicited rise in intracellular calcium (sample traces)” value [4] of the same compound?
Answer: The value was “blocked response”.

Question: What about the “proportion of cells (DRG neurons) responding to the venom in the presence of AMG-9810” value ([4]; AMG-9810 10 μM, Fisher exact test P=0.322) of the same compound?
Answer: Its value is 30/32.

Question: And the “venom-elicited spontaneous pain behavior over 1 hour after AMG-9810 pretreatment” value [5]?
Answer: The value was “independent”.

Question: How did the “Proportion of cultured DRG neurons responding to capsaicin alone” value [4] turn out when `COc1cc(CNC(=O)CCCC/C=C/C(C)C)ccc1O` [capsaicin] was run?
Answer: Its value is 45/65.
